Experimental data: US6858579B2, “Anti-inflammatory compounds” (William Harvey Research Limited, priority 2001, dated 2005)
Where no end group is shown, it is not given here.

Legend:
PMN migration = assay: Mouse air-pouch model, zymosan-induced PMN migration; format: in vivo, mice; settings: for activity in the in vivo animal model of inflammation: mouse air-pouch model, peptide s.c., result in words; for Approximate ED50, inhibition of PMN migration: mouse air-pouch, peptide s.c. 30 min prior to 1 mg zymosan, PMN counted 4 h after zymosan, n=15, P<0.01
Description: Male Swiss Albino mice (20-22 g body weight) were purchased from Interfauna (CFLP strain; Huntingdon, Cambridgeshire, UK) and maintained on a standard chow pellet diet with tap water ad libitum. Animals were used at least one week after arrival.
Air-pouches were formed on the back of the mice by subcutaneous (s.c.) injection of 2.5 ml or air on day […]. Three days after the last air-injection (6-day-old air-pouches) 1 mg of zymosan (in 0.5 ml of sterile saline) was injected locally (Perretti et al., 1996). Zymosan was previously boiled for 30 min in phosphate buffered solution (PBS), extensively washed in the same medium and stored at −20° C. prior to use.
Four hours after the local injection of zymosan, mice were killed by CO2 exposure and the air-pouches washed with 2 ml of PBS containing ethylenediaminetetracetic acid sodium salt (EDTA; 3 mM) and heparin (25 U/ml).
Lavage fluids (essentially the entire 2 ml were consistently recovered) were centrifuged at 200 g for 10 min at 4° C. and cell pellets were resuspended in 2 ml of PBS/EDTA+heparin. The number of PMN was determined, using a Neubauer haematocytometer, after staining (1:10 dilution) with Turk's solution (crystal violet 0.01% w/v in acetic acid 3% v/v).
The following peptides were drawn from the lipocortin 1 N-terminus region: LC12-26 (Ac-[…] (SEQ ID NO:6)), LC12-12 (Ac-AMVSEFLKQAW (SEQ ID NO:4)), LC1 13-25 (FIENEEQEYVQTV (SEQ ID NO:7)), LC12-6(Ac-AMVSE ((SEQ ID NO 3))), or scramble LC12-6 (AC-SVEMA (SEQ ID NO:5)) were administered s.c. 30 min prior to injection of 1 mg zymosan into the air-pouches. Control mice were treated with sterile PBS (100 μl s.c.).

A549 cell line = settings: in vitro A549 model; previous publications (Croxtall et al., 1993, 1998); result in words; cited from earlier work

Substance	activity in the in vivo animal model of inflammation (PMN migration)	Approximate ED50, inhibition of PMN migration (PMN migration) [nmol]	inhibitory effect on A549 cell function (A549 cell line)
AC-SVEMA (SEQ ID NO:5) (Ac-SVEMA) [scrambled version of AMVSE, reference compound]	inactive	–	–
Ac-AMVSE ((SEQ ID NO 3)) [LC12-6, N-acetylated lipocortin 1 fragment, residues 2-6]	active	~110	–
Ac-AMVSEFLKQAW (SEQ ID NO:4) [LC12-12, N-acetylated lipocortin 1 fragment, residues 2-12]	active	~110	–
Ac-AMVSEFLKQAWFIENEEQEYVQTVK (SEQ ID NO:6) [LC12-26, reference compound]	–	~45	–
EQEYVQTV (SEQ ID NO:2) [LC118-25, lipocortin 1 fragment, residues 18-25]	–	–	significant inhibitory activity
